# Measured values from ChEMBL document CHEMBL2040717, “Cytotoxic diterpenoids from Sapium insigne” (J Nat Prod, 2012).
# Calls of active or inactive are those of the source. The rule behind the calls is not given here.
# Tests used:
# [1] = system: A549; test: Cytotoxicity against human A549 cells by SRB assay; format: functional, cell-based
# [2] = system: HL-60; test: Cytotoxicity against human HL60 cells by MTT assay
# [3] = system: A549; test: Cytotoxicity against human A549 cells at 100 uM by SRB assay; format: functional, cell-based
# [4] = system: HL-60; test: Cytotoxicity against human HL60 cells at 100 uM by MTT assay
smiles,measurement,setting,value
CCCCCCCC[C@H](O)/C=C/C=C/C(=O)O[C@@]12C[C@@H](C)[C@@]3(O)[C@@H](C=C(CO)C[C@]4(O)C(=O)C(C)=C[C@@H]34)[C@@H]1[C@@]2(C)COC(C)=O [SAPINSIGNOID B],IC50,[1],200 nM
same,IC50,[2],6500 nM
CCCCCCCCC(=O)/C=C/C=C/C(=O)O[C@@]12C[C@@H](C)[C@@]3(O)[C@@H](C=C(CO)C[C@]4(O)C(=O)C(C)=C[C@@H]34)[C@@H]1[C@@]2(C)COC(C)=O [SAPINSIGNOID C],IC50,[1],400 nM
same,IC50,[2],2700 nM
C[C@H]1C[C@]23CC[C@H]1C[C@H]2[C@]1(C)CCCC(C)(C)[C@H]1CC3,Activity,[3],inactive
same,Activity,[4],inactive
CC[C@H](C)CC[C@@H]1[C@H](C)CC[C@@H]2C(C)(C)CCC[C@@]12C,Activity,[3],inactive
same,Activity,[4],inactive
CCCCCCCC/C=C/C=C/CC(=O)O[C@@]12C[C@@H](C)[C@@]3(O)[C@@H](C=C(CO)C[C@]4(O)C(=O)C(C)=C[C@@H]34)[C@@H]1[C@@]2(C)COC(C)=O [SAPINSIGNOID D],IC50,[1],900 nM
CCCCCCCC[C@@H](O)/C=C/C=C/C(=O)O[C@@]12C[C@@H](C)[C@@]3(O)[C@@H](C=C(CO)C[C@]4(O)C(=O)C(C)=C[C@@H]34)[C@@H]1[C@@]2(C)COC(C)=O [SAPINSIGNOID A],IC50,[1],1800 nM
same,IC50,[2],3400 nM
C[C@H]1C[C@@]23CC[C@@H]4C(C)(C)CCC[C@@]4(C)[C@@H]2CC[C@@H]1C3,Activity,[3],inactive
same,Activity,[4],inactive
